Reference: PubChem BioAssay AID330 (DTP/NCI, 2004)
Several values for one entry are separate records, joined by “and”; a condition that tells them apart may be missing. Identical values can stand only once. Toxic doses and inconclusive results are not listed.

Tested on: P388 leukemia ip, CD2F1 mice, survival T/C
Test: NCI In Vivo Anticancer Drug Screen. Data for tumor model P388 Leukemia (intraperitoneal) in CD2F1 (CDF1) mice
Conditions: endpoint: median survival time, higher = longer survival
Procedure, shortened: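 Mice carrying the transplanted tumor received test compound or vehicle. Survival was recorded in each group, and the value is the treated-group measurement divided by that of the vehicle-treated control group.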

[1] = dose: 50.0 mg/kg/injection, schedule: Q01DX005 (ip), vehicle: Klucel (hydroxypropylcellulose) (HPC)
[2] = dose: 100.0 mg/kg/injection, schedule: Q01DX005 (ip), vehicle: Klucel (hydroxypropylcellulose) (HPC)
[3] = dose: 50.0 mg/kg/injection, schedule: Q01DX005 (ip), vehicle: saline with Tween-80
[4] = dose: 100.0 mg/kg/injection, schedule: Q01DX005 (ip), vehicle: saline with Tween-80
[5] = dose: 200.0 mg/kg/injection, schedule: Q01DX005 (ip), vehicle: saline with Tween-80
[6] = dose: 50.0 mg/kg/injection, schedule: Q01DX009 (ip), vehicle: saline
[7] = dose: 200.0 mg/kg/injection, schedule: Q01DX005 (ip), vehicle: Klucel (hydroxypropylcellulose) (HPC)
[8] = dose: 50.0 mg/kg/injection, schedule: Q01DX009 (ip), vehicle: saline with Tween-80
[9] = dose: 100.0 mg/kg/injection, schedule: Q01DX009 (ip), vehicle: saline with Tween-80
[10] = dose: 200.0 mg/kg/injection, schedule: Q01DX009 (ip), vehicle: saline with Tween-80
[11] = dose: 60.0 mg/kg/injection, schedule: Q01DX005 (ip), vehicle: saline with Tween-80
[12] = dose: 120.0 mg/kg/injection, schedule: Q01DX005 (ip), vehicle: saline with Tween-80
[13] = dose: 240.0 mg/kg/injection, schedule: Q01DX005 (ip), vehicle: saline with Tween-80
[14] = dose: 50.0 mg/kg/injection, schedule: Q01DX009 (ip), vehicle: Klucel (hydroxypropylcellulose) (HPC)
[15] = dose: 100.0 mg/kg/injection, schedule: Q01DX009 (ip), vehicle: Klucel (hydroxypropylcellulose) (HPC)
[16] = dose: 200.0 mg/kg/injection, schedule: Q01DX009 (ip), vehicle: Klucel (hydroxypropylcellulose) (HPC)

CS\C(N)=N/N=C/C(C)=N/N=C(/N)SC
T/C (dose: 50.0 mg/kg/injection, schedule: Q04DX002 (ip), vehicle: saline with Tween-80): 101 % of control | T/C (dose: 100.0 mg/kg/injection, schedule: Q04DX002 (ip), vehicle: saline with Tween-80): 100 % of control | T/C (dose: 200.0 mg/kg/injection, schedule: Q04DX002 (ip), vehicle: saline with Tween-80): 100 % of control

NC(=O)N1C(=O)C=CC1=O
T/C [1]: 92 % of control | T/C [2]: 104 % of control

CCOC(=O)/C=C(\C)Nc1cccc2c(N/C(C)=C/C(=O)OCC)cccc12
T/C [3]: 105 % of control | T/C [4]: 100 % of control | T/C [5]: 98 % of control

O=C(O)c1ccc(Oc2nc3ccccc3s2)cc1
T/C (dose: 50.0 mg/kg/injection, schedule: Q04DX003 (ip), vehicle: saline with Tween-80): 91 % of control | T/C (dose: 100.0 mg/kg/injection, schedule: Q04DX003 (ip), vehicle: saline with Tween-80): 91 % of control

C=C(CC(=O)O)C(=O)O (tested in a mixture with another compound)
T/C (dose: 12.5 mg/kg/injection, schedule: Q01DX009 (ip), vehicle: saline): 100 % of control | T/C (dose: 25.0 mg/kg/injection, schedule: Q01DX009 (ip), vehicle: saline): 100 % of control | T/C [6]: 100 % of control

COc1cc2c(c(OC)c1OC)-c1c(cc3c(c1OC)OCO3)C1OC2C(C)C1C (stereo not given) (tested in a mixture with another compound)
T/C (dose: 25.0 mg/kg/injection, schedule: Q01DX005 (ip), vehicle: Klucel (hydroxypropylcellulose) (HPC)): 100 % of control | T/C [1]: 97 % of control | T/C [2]: 100 % of control and 101 % of control | T/C [7]: 103 % of control and 106 % of control | T/C (dose: 400.0 mg/kg/injection, schedule: Q01DX005 (ip), vehicle: Klucel (hydroxypropylcellulose) (HPC)): 99 % of control

Cc1cc(NC(=S)SC(C)C)ccc1Cl
T/C [6]: 99 % of control | T/C (dose: 100.0 mg/kg/injection, schedule: Q01DX009 (ip), vehicle: saline): 102 % of control | T/C (dose: 200.0 mg/kg/injection, schedule: Q01DX009 (ip), vehicle: saline): 102 % of control

O=C([O][Hg][C](F)(F)F)C(F)(F)F
T/C (dose: 1.56 mg/kg/injection, schedule: Q04DX003 (ip), vehicle: saline): 104 % of control | T/C (dose: 3.13 mg/kg/injection, schedule: Q04DX003 (ip), vehicle: saline): 101 % of control

C[C@@H]1C[C@@H]2c3cccc4[nH]cc(c34)C[C@H]2N(C)C1
T/C (dose: 3.12 mg/kg/injection, schedule: Q01DX005 (ip), vehicle: saline with Tween-80): 98 % of control | T/C (dose: 6.25 mg/kg/injection, schedule: Q01DX005 (ip), vehicle: saline with Tween-80): 98 % of control | T/C (dose: 12.5 mg/kg/injection, schedule: Q01DX005 (ip), vehicle: saline with Tween-80): 100 % of control

O=C(/C=C/c1ccc(OCc2ccccc2)cc1)c1ccccc1Cl
T/C [8]: 110 % of control and 95 % of control | T/C [9]: 110 % of control and 91 % of control | T/C [10]: 100 % of control | T/C (dose: 400.0 mg/kg/injection, schedule: Q01DX009 (ip), vehicle: saline with Tween-80): 100 % of control

CCCCCCCCCCCCCCCCOc1ccc(S(=O)(=O)c2ccccc2)cc1[N+](=O)[O-]
T/C (dose: 25.0 mg/kg/injection, schedule: Q04DX003 (ip), vehicle: saline sonified): 100 % of control | T/C (dose: 50.0 mg/kg/injection, schedule: Q04DX003 (ip), vehicle: saline sonified): 100 % of control | T/C (dose: 100.0 mg/kg/injection, schedule: Q04DX003 (ip), vehicle: saline sonified): 90 % of control

O=C(/N=C1\N=Nc2nc(C(C(=O)c3ccc(F)cc3)c3nc4n(c3O)/C(=N/C(=O)Nc3ccc(Cl)cc3)N=N4)c(O)n21)Nc1ccc(Cl)cc1 (stereo not given)
T/C [11]: 91 % of control | T/C [12]: 91 % of control | T/C [13]: 88 % of control

COC(=O)C1=C/C=C\CN(/C=C/c2ccccc2)/C=C\1C(=O)OC
T/C (dose: 100.0 mg/kg/injection, schedule: Q04DX003 (ip), vehicle: alcohol): 97 % of control | T/C (dose: 200.0 mg/kg/injection, schedule: Q04DX003 (ip), vehicle: alcohol): 112 % of control | T/C (dose: 400.0 mg/kg/injection, schedule: Q04DX003 (ip), vehicle: alcohol): 94 % of control

COP(=O)(OC)C1(C)CO1 (stereo not given)
T/C [14]: 87 % of control | T/C [15]: 91 % of control | T/C [16]: 86 % of control

CCCCC/C(=C/C=C/c1ccc(Cl)cc1)CN(C)C
T/C [14]: 111 % of control | T/C [15]: 110 % of control

COc1cc2c(cc1OC)C(CCN)=NCC2
T/C (dose: 25.0 mg/kg/injection, schedule: Q01DX009 (ip), vehicle: saline sonified): 95 % of control | T/C (dose: 50.0 mg/kg/injection, schedule: Q01DX009 (ip), vehicle: saline sonified): 100 % of control | T/C (dose: 100.0 mg/kg/injection, schedule: Q01DX009 (ip), vehicle: saline sonified): 100 % of control

c1ccc2c3[n+](ccc2c1)CCC[n+]1ccc2ccccc2c1-3
T/C (dose: 3.12 mg/kg/injection, schedule: Q01DX001 (ip), vehicle: saline): 106 % of control | T/C (dose: 6.25 mg/kg/injection, schedule: Q01DX001 (ip), vehicle: saline): 106 % of control | T/C (dose: 12.5 mg/kg/injection, schedule: Q01DX001 (ip), vehicle: saline): 92 % of control

O=P(C(=S)Nc1ccccc1Cl)(c1ccccc1)c1ccccc1
T/C [14]: 100 % of control | T/C [15]: 91 % of control | T/C [16]: 90 % of control

O=C(CN1C(=O)c2cccc3c(Br)ccc(c23)C1=O)c1ccc(F)cc1
T/C [3]: 87 % of control | T/C [4]: 103 % of control | T/C [5]: 89 % of control

CSC(=S)n1nc(C)c(N=Nc2cccc(Cl)c2Cl)c1C
T/C [3]: 88 % of control | T/C [4]: 88 % of control | T/C [5]: 89 % of control

CC[C@]12CN3CCc4c([nH]c5ccccc45)[C@@](C(=O)OC)(c4cc5c(cc4OC)N(C=O)[C@H]4[C@@](O)(C(=O)OC)[C@H](OC(C)=O)[C@]6(CC)C=CCN7CC[C@]54[C@@H]76)C[C@H](C3)[C@H]1O2
T/C (dose: 1.0 mg/kg/injection, schedule: Q01DX009 (ip), vehicle: saline): 123 % of control | T/C (dose: 4.0 mg/kg/injection, schedule: Q01DX009 (ip), vehicle: saline): 166 % of control | T/C (dose: 6.0 mg/kg/injection, schedule: Q01DX009 (ip), vehicle: saline): 175 % of control

O=C1CCC(C(=O)O)N1 (stereo not given)
T/C (dose: 100.0 mg/kg/injection, schedule: Q04DX003 (ip), vehicle: saline): 95 % of control | T/C (dose: 200.0 mg/kg/injection, schedule: Q04DX003 (ip), vehicle: saline): 97 % of control | T/C (dose: 400.0 mg/kg/injection, schedule: Q04DX003 (ip), vehicle: saline): 94 % of control

O=C(O)c1c2ccccc2nc2[nH]c(=O)[nH]c(=O)c12
T/C [1]: 114 % of control and 95 % of control | T/C (dose: 50.0 mg/kg/injection, schedule: Q01DX005 (ip), vehicle: Klucel + Tween-80): 117 % of control | T/C [2]: 107 % of control and 95 % of control | T/C (dose: 100.0 mg/kg/injection, schedule: Q01DX005 (ip), vehicle: Klucel + Tween-80): 107 % of control | T/C [7]: 114 % of control | T/C (dose: 200.0 mg/kg/injection, schedule: Q01DX005 (ip), vehicle: Klucel + Tween-80): 117 % of control

O=C1c2c(O)cc(O)cc2OC(c2ccc(O)cc2)C1O (stereo not given)
T/C (dose: 9.75 mg/kg/injection, schedule: Q01DX009 (ip), vehicle: saline): 100 % of control | T/C (dose: 19.5 mg/kg/injection, schedule: Q01DX009 (ip), vehicle: saline): 101 % of control | T/C (dose: 39.0 mg/kg/injection, schedule: Q01DX009 (ip), vehicle: saline): 102 % of control

ClC1CCCC[N-]1.ClC1CCCC[N-]1.[Cl][Pt+2][Cl] (stereo not given)
T/C (dose: 12.5 mg/kg/injection, schedule: Q01DX009 (ip), vehicle: saline with Tween-80): 109 % of control | T/C (dose: 25.0 mg/kg/injection, schedule: Q01DX009 (ip), vehicle: saline with Tween-80): 103 % of control | T/C [8]: 101 % of control | T/C [9]: 97 % of control | T/C [10]: 99 % of control

CC1CC(C)N(C)C(C)C1 (stereo not given)
T/C (dose: 15.0 mg/kg/injection, schedule: Q01DX005 (ip), vehicle: saline): 103 % of control | T/C (dose: 30.0 mg/kg/injection, schedule: Q01DX005 (ip), vehicle: saline): 99 % of control | T/C (dose: 60.0 mg/kg/injection, schedule: Q01DX005 (ip), vehicle: saline): 104 % of control

CC1=NOC(=O)/C1=C/c1ccc(Cl)cc1
T/C [11]: 99 % of control | T/C [12]: 105 % of control | T/C [13]: 104 % of control
